The text below walks through data of patent US20030176314A1, “Compounds for the treatment of pain” (priority 2001, published 2003).

This experiment deals with T1, human α1A adrenergic receptor (Homo sapiens, UniProt P35348).
T1 construct: host or cells: LM(tk-) cells, line L-α1C
T1 sequence (P35348 1-466): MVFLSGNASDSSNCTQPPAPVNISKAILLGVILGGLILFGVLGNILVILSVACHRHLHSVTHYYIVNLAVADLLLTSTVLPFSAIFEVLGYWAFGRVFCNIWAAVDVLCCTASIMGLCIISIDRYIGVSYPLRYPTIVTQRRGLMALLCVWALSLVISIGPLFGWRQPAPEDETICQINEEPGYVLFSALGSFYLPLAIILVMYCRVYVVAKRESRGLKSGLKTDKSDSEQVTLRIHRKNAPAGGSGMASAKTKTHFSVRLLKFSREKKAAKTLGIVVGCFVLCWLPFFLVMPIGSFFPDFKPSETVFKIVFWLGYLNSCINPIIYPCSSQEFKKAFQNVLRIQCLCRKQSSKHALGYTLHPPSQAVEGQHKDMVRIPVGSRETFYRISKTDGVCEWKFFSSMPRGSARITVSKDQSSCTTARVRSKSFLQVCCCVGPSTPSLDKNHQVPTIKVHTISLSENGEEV
The experiment is described as follows: Binding at human α1A adrenergic receptor. The following applies: Table 8; read-out: hα1A Ki. From the text:
α1 Human Adrenergic Receptors: To determine the binding of compounds to human α1 receptors, LM(tk−) cell lines stably transfected with the genes encoding the α1a, α1b, and α1d receptors were used. The nomenclature describing the α1 receptors was changed recently, such that the receptor formerly designated α1a is now designated α1d, and the receptor formerly designated α1c is now designated α1a. The cell lines expressing these receptors were deposited with the ATCC before the nomenclature change and reflect the subtype designations formerly assigned to these receptors. Thus, the cell line expressing the receptor described herein as the α1a receptor was deposited with the ATCC on Sep. […] The cell line expressing receptor described herein as the α1d receptor was deposited with the ATCC on Sep. […] The cell line expressing the α1b receptor is designated L-α1B, and was deposited on Sep.
The binding affinity (Ki) of these compounds were tested according to the protocols described herein at the following receptors; human α1A, α1B, α1D, α2A, α2B, and α2C adrenergic receptors; human Y1, Y2, Y4, and Y5 receptors; and N-Methyl-D-aspartic acid (NMDA) receptor channels. The binding interactions of these compounds were additionally tested at the norepinephrine (NE) transporter (NE uptake) and serotonin (5-hydroxytryptamine (5HT)) transporter (5HT uptake) according to protocols described herein

Consider `Cc1nc(NC(=N)N)nc2ccc3ccccc3c12` [Compound 1007A], for which the Ki worked out at 3.27 µM.

Usually Ki stands for a dissociation constant, usually derived from enzyme kinetics or from competition with a known ligand.
